Earlier results as cited in patent publication US8329227B2, “Compositions for improving mental performance” (Factor Nutrition Labs, LLC, priority 2001, dated 2012).

Experiments:
[1] = 200 micrograms in four divided doses, fifty patients; placebo thirty-six percent
[2] = high or low dose versus placebo, 203 patients
[3] = healthy volunteers aged 25-40
[4] = PS supplementation

Compound: C/C=C1\[C@H]2C=C(C)C[C@]1(N)c1ccc(=O)[nH]c1C2 [huperzine A, Huperzine A]
- people with improvements in memory, cognitive function and behavior [1]: Fifty-eight

Compound: CCOC(=O)C1=C[C@]2(CC)CCCN3CCc4c(n1c1ccccc41)[C@@H]32 [vinpocetine]
- cognitive performance and overall quality of life [2]: Significantly greater improvements
- memory (Steinberg Memory Test) [3]: significant memory improvement
- patients with reduced frequency or complete elimination of epileptic seizures (epileptic patients): twenty of the thirty-one
- tolerability in clinical studies (human, in vivo): well tolerated

Compound: phosphatidyl serine [PS]
- improvement in learning ability and memory tasks [4]: 15%
